Results from patent US9000191B2, “Serotonin reuptake inhibitors” (Theravance Biopharma R&D IP, LLC, priority 2010, dated 2015).

Biological target: T1, hSERT (Homo sapiens, UniProt P31645)
T1 construct: expressed in transfected cells; host or cells: HEK293 (stably transfected, G418 selection)
Assay: hSERT neurotransmitter uptake assay
Assay type: cell-based
Conditions: serotonin reuptake inhibition, HEK293-hSERT cells; read-out: SERT pIC50 (converted)
Method: Neurotransmitter uptake assays were used to measure inhibition of ^3H-serotonin (^3H-5-HT) uptake into cells expressing hSERT in order to determine the pIC50 values of test compounds at the transporter, similar to the procedures described in Tsuruda et al. (2010) Journal of Pharmacological and Toxicological Methods 61(2):192-204.
HEK293 cells stably-transfected with human recombinant SERT (HEK293-hSERT) were grown in DMEM medium supplemented with 10% dialyzed fetal bovine serum, 100 μg/ml penicillin, 100 μg/ml streptomycin, 2 mM L-glutamine, and 250 μg/ml of the aminoglycoside antibiotic G418. Cells were incubated in a 5% CO2, humidified incubator at 37° C.
The neurotransmitter uptake assay was performed in a 96-well assay plate in a total volume of 100 μL assay buffer containing HEK293-hSERT cells (7500-10,000 cells/well; plated ˜2 hours prior to assay initiation. Neurotransmitter Transporter Uptake Assay dye (0.5 μM), and eleven different concentrations of compound ranging from 10 μM to […] was used. Non-specific uptake was determined in the presence of indatraline (2.5 μM). The final assay buffer was 12.5 mM Tris-HCl, 5 mM HEPES, 3 mM NaHCO3, 0.3 mM KH2PO4, 0.25 mM Na2HPO4, 130 mM NaCl, 5 mM KCl, 1 mM CaCl2, 0.4 mM MgCl2, 0.3 mM MgSO4, 4 mM D-glucose, 0.025% BSA, 0.1 mM ascorbic acid, pH 7.4.
In pre-incubation studies, test compound was added to cells for 30 minutes at 37° C. prior to the addition of fluorescent substrate. For determination of inhibitory potency, a 10-30 minute endpoint substrate accumulation was determined by fluorescence spectroscopy using a Safire (Tecan Group Ltd., Minnendorf, Switzerland) and analysis was performed as described in Tsuruda et al., supra. For real-time measurements, compounds were either preincubated (as above) or mixed with substrate prior to addition, and kinetic measurements, relative fluorescence units (RFU integrated over 0.5 ms), were made using a cycle time of 1 min.

T1 sequence (P31645 whole entry): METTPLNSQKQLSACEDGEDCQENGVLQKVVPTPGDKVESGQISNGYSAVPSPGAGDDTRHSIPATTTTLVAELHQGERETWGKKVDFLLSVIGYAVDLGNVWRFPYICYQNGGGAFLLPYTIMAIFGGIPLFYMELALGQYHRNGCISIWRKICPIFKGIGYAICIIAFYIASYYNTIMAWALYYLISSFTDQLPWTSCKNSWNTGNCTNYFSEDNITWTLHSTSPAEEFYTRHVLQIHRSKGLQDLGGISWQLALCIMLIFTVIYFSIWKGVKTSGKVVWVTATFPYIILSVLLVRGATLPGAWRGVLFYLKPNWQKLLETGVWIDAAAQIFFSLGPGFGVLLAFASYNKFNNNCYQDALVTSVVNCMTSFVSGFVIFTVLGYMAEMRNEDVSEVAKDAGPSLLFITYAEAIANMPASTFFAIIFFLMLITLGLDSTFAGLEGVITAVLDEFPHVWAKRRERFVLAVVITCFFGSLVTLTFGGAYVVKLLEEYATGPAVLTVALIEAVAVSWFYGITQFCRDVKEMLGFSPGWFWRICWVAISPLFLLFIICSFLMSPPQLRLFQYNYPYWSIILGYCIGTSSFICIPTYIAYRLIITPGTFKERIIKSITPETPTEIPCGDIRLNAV

`CS(=O)(=O)CCC(Oc1ccc(C(F)(F)F)cc1)[C@@H]1CCNC1` (single isomer, unassigned) [Example 8-1] and `CS(=O)(=O)CCC(Oc1ccc(C(F)(F)F)cc1)[C@H]1CCNC1` (single isomer, unassigned) [Example 8-3] cannot be ordered by IC50: no more than 100 nM for the first, no more than 100 nM for the second.

`CC(C)S(=O)(=O)CCC(Oc1ccc(C(F)(F)F)cc1)[C@H]1CCNC1` (single isomer, unassigned) [Example 8-5] and `CC(C)S(=O)(=O)C[C@@H](Oc1ccc(C(F)(F)F)cc1)[C@H]1CCNC1` [Example 2-13, (S)-3-[(S)-2-(Propane-2-sulfonyl)-1-(4-trifluoromethylphenoxy)ethyl]pyrrolidine] cannot be ordered by IC50: no more than 10 nM for the first, no more than 10 nM for the second.

`CS(=O)(=O)C[C@H](Oc1ccc(C(F)(F)F)c(C#N)c1)[C@H]1CCNC1` (stereo in doubt) [Example 2-21, 5-((S)-2-Methanesulfonyl-1-(R)-pyrrolidin-3-ylethoxy)-2-trifluoromethyl-benzonitrile] and `CS(=O)(=O)C[C@@H](Oc1ccc(C(F)(F)F)c(C#N)c1)[C@H]1CCNC1` [Example 2-20, 5-((S)-2-Methanesulfonyl-1-(S)-pyrrolidin-3-ylethoxy)-2-trifluoromethyl-benzonitrile] cannot be ordered by IC50: no more than 10 nM for the first, no more than 100 nM for the second.

`CS(=O)(=O)C[C@@H](Oc1ccc(Cl)c(C#N)c1)[C@@H]1CCNC1` (stereo in doubt) [Example 2-23, 2-Chloro-5-((R)-2-methanesulfonyl-1-(S)-pyrrolidin-3-ylethoxy)benzonitrile] and `CS(=O)(=O)C[C@H](Oc1ccc(Cl)c(C#N)c1)[C@H]1CCNC1` (stereo in doubt) [Example 2-24, 2-Chloro-5-((S)-2-methanesulfonyl-1-(R)-pyrrolidin-3-ylethoxy)benzonitrile] cannot be ordered by IC50: no more than 100 nM for the first, no more than 10 nM for the second.

`CS(=O)(=O)C[C@H](Oc1ccc(Cl)cn1)[C@H]1CCNC1` (stereo in doubt) [Example 4-2, 5-Chloro-2-((S)-2-methanesulfonyl-1-(R)-pyrrolidin-3-ylethoxy)pyridine] and `CS(=O)(=O)C[C@@H](Oc1ccc(Cl)cn1)[C@H]1CCNC1` [Example 4-1, 5-Chloro-2-((S)-2-methanesulfonyl-1-(S)-pyrrolidin-3-ylethoxy)pyridine] cannot be ordered by IC50: no more than 100 nM for the first, no more than 100 nM for the second.

`CS(=O)(=O)C[C@@H](Oc1ccc(C(F)(F)F)nc1)[C@@H]1CCNC1` (stereo in doubt) [Example 6-1, 5-((R)-2-Methanesulfonyl-1-(S)-pyrrolidin-3-ylethoxy)-2-trifluoromethylpyridine] and `CS(=O)(=O)C[C@@H](Oc1ccc(C(F)(F)F)nc1)[C@@H]1CCNC1` [Example 5] cannot be ordered by IC50: no more than 100 nM for the first, no more than 100 nM for the second.

`CS(=O)(=O)C[C@H](Oc1ccc(Cl)nc1)[C@H]1CCNC1` (stereo in doubt) [Example 6-4, 2-Chloro-5-((S)-2-methanesulfonyl-1-(R)-pyrrolidin-3-ylethoxy)pyridine] and `CS(=O)(=O)C[C@@H](Oc1ccc(Cl)nc1)[C@H]1CCNC1` [Example 6-3, 2-Chloro-5-((S)-2-methanesulfonyl-1-(S)-pyrrolidin-3-ylethoxy)pyridine] cannot be ordered by IC50: no more than 100 nM for the first, no more than 100 nM for the second.

`CS(=O)(=O)C[C@H](Oc1ccc(C(F)(F)F)cc1)[C@H]1CCNC1` [Example 2-1, (S)-3-[(R)-2-Methanesulfonyl-1-(4-trifluoromethylphenoxy)ethyl]pyrrolidine] and `CS(=O)(=O)C[C@H](Oc1ccc(C(F)(F)F)cc1)[C@@H]1CCNC1` [Example 2-2, (R)-3-[(R)-2-Methanesulfonyl-1-(4-trifluoromethylphenoxy)ethyl]pyrrolidine] cannot be ordered by IC50: no more than 10 nM for the first, no more than 10 nM for the second.

`CS(=O)(=O)C[C@@H](Oc1ccc(C(F)(F)F)cc1)[C@@H]1CCNC1` [Example 2-3, (R)-3-[(S)-2-Methanesulfonyl-1-(4-trifluoromethylphenoxy)ethyl]pyrrolidine] and `CCS(=O)(=O)C[C@@H](Oc1ccc(C(F)(F)F)cc1)[C@H]1CCNC1` [Example 2-12, (S)-3-[(S)-2-Ethanesulfonyl-1-(4-trifluoromethyl-phenoxy)ethyl]pyrrolidine] cannot be ordered by IC50: no more than 10 nM for the first, no more than 10 nM for the second.

`CS(=O)(=O)C[C@H](Oc1ccc(Cl)cc1)[C@H]1CCNC1` [Example 2-4, (S)-3-[(R)-1-(4-Chlorophenoxy)-2-methanesulfonylethyl]pyrrolidine] and `CS(=O)(=O)C[C@@H](Oc1ccc([N+](=O)[O-])cc1)[C@H]1CCNC1` [Example 2-5, (S)-3-[(S)-2-Methanesulfonyl-1-(4-nitrophenoxy)ethyl]pyrrolidine] cannot be ordered by IC50: no more than 100 nM for the first, no more than 100 nM for the second.

`CS(=O)(=O)C[C@H](Oc1ccc([N+](=O)[O-])cc1)[C@H]1CCNC1` [Example 2-6, (S)-3-[(R)-2-Methanesulfonyl-1-(4-nitro-phenoxy)ethyl]pyrrolidine] and `COc1cc([N+](=O)[O-])ccc1O[C@@H](CS(C)(=O)=O)[C@H]1CCNC1` [Example 2-25, (S)-3-[(R)-2-Methanesulfonyl-1-(2-methoxy-4-nitrophenoxy)ethyl]pyrrolidine] cannot be ordered by IC50: no more than 100 nM for the first, no more than 100 nM for the second.

`CS(=O)(=O)C[C@@H](Oc1ccc(OC(F)(F)F)cc1)[C@H]1CCNC1` [Example 2-9, (S)-3-[(S)-2-Methanesulfonyl-1-(4-trifluoromethoxyphenoxy)ethyl]pyrrolidine] and `CS(=O)(=O)C[C@H](Oc1ccc(OC(F)(F)F)cc1)[C@H]1CCNC1` [Example 2-10, (S)-3-[(R)-2-Methanesulfonyl-1-(4-trifluoromethoxyphenoxy)ethyl]pyrrolidine] cannot be ordered by IC50: no more than 100 nM for the first, no more than 100 nM for the second.

`CS(=O)(=O)C[C@@H](Oc1ccc(OC(F)(F)F)cc1)[C@@H]1CCNC1` [Example 2-11, (R)-3-[(S)-2-Methanesulfonyl-1-(4-trifluoromethoxyphenoxy)ethyl]pyrrolidine] and `CS(=O)(=O)C[C@@H](Oc1ccc(C(F)(F)F)nc1)[C@H]1CCNC1` [Example 6-2, 5-((S)-2-Methanesulfonyl-1-(S)-pyrrolidin-3-ylethoxy)-2-trifluoromethylpyridine] cannot be ordered by IC50: no more than 10 nM for the first, no more than 100 nM for the second.

`CC(=O)NCCS(=O)(=O)C[C@@H](Oc1ccc(C(F)(F)F)cc1)[C@H]1CCNC1` [Example 2-14, N-{2-[(S)-2-(S)-Pyrrolidin-3-yl-2-(4-trifluoromethylphenoxy)ethanesulfonyl]-ethyl}-acetamide] and `O=S(=O)(CCO)C[C@@H](Oc1ccc(C(F)(F)F)cc1)[C@H]1CCNC1` [Example 2-15, 2-[(S)-2-(S)-Pyrrolidin-3-yl-2-(4-trifluoromethylphenoxy)ethanesulfonyl]ethanol] cannot be ordered by IC50: no more than 10 nM for the first, no more than 10 nM for the second.

`COC(=O)CS(=O)(=O)C[C@@H](Oc1ccc(C(F)(F)F)cc1)[C@H]1CCNC1` [Example 2-16, [(S)-(S)-Pyrrolidin-3-yl-(4-trifluoromethylphenoxy)ethanesulfonyl]acetic acid methyl ester] and `CC(=O)Nc1ccc(S(=O)(=O)C[C@@H](Oc2ccc(C(F)(F)F)cc2)[C@H]2CCNC2)cc1` [Example 2-18, N-{4-[(S)-2-(S)-Pyrrolidin-3-yl-2-(4-trifluoromethylphenoxy)ethanesulfonyl]-phenyl}-acetamide] cannot be ordered by IC50: no more than 10 nM for the first, no more than 10 nM for the second.

`O=S(=O)(C[C@@H](Oc1ccc(C(F)(F)F)cc1)[C@H]1CCNC1)c1ccccc1` [Example 2-17, (S)-3-[(S)-2-Benzenesulfonyl-1-(4-trifluoromethylphenoxy)ethyl]pyrrolidine] and `O=S(=O)(C[C@@H](Oc1ccc(C(F)(F)F)cc1)[C@H]1CCNC1)c1ccncc1` [Example 2-19, 4-[(S)-2-(S)-Pyrrolidin-3-yl-2-(4-trifluoromethylphenoxy)ethanesulfonyl]pyridine] cannot be ordered by IC50: no more than 10 nM for the first, no more than 100 nM for the second.

`CS(=O)(=O)C[C@@H](Oc1ccc(Cl)c(C#N)c1)[C@H]1CCNC1` [Example 2-22, 2-Chloro-5-((S)-2-methanesulfonyl-1-(S)-pyrrolidin-3-ylethoxy)benzonitrile] and `Cc1cc(Cl)ccc1O[C@@H](CS(C)(=O)=O)[C@H]1CCNC1` [Example 2-28, (S)-3-[(R)-1-(4-Chloro-2-methylphenoxy)-2-methanesulfonylethyl]pyrrolidine] cannot be ordered by IC50: no more than 10 nM for the first, no more than 10 nM for the second.

`COc1cc([N+](=O)[O-])ccc1O[C@H](CS(C)(=O)=O)[C@@H]1CCNC1` [Example 2-26, (R)-3-[(S)-2-Methanesulfonyl-1-(2-methoxy-4-nitrophenoxy)ethyl]pyrrolidine] and `COc1cc([N+](=O)[O-])ccc1O[C@@H](CS(C)(=O)=O)[C@@H]1CCNC1` [Example 2-27, (R)-3-[(R)-2-Methanesulfonyl-1-(2-methoxy-4-nitrophenoxy)ethyl]pyrrolidine] cannot be ordered by IC50: no more than 100 nM for the first, no more than 100 nM for the second.

`CS(=O)(=O)C[C@@H](Oc1ccc(C(F)(F)F)cn1)[C@H]1CCNC1` [Example 4-3, 2-((S)-2-Methanesulfonyl-1-(S)-pyrrolidin-3-yl-ethoxy)-5-trifluoromethyl-pyridine] showed an IC50 of no more than 10 nM.
